How the values were obtained:
Trichophyton rubrum = experiment: Measurement of antifungal activity in vitro (lowest active dose) vs. Trichophyton rubrum; format: cell-based; settings: lowest concentration inhibiting growth below 35% of control growth; CYG broth, 30° C. for 5-7 days, turbidimetry
Procedure: (§1) Test compounds were dissolved at a concentration of 10^−2 M in dimethyl sulfoxide (DMSO) and diluted into CYG broth (Odds, F. C. Antimicrobial Agents and Chemotherapy 1992; 36: 1727-1737) to give a final concentration of 25 μM and, in most tests, 5 μM. For some compounds the tests were done at 100, 10, 1.0 and 0.1 μM. Cultures were inoculated with Candida.kefyr to an initial concentration of 10^4/ml and with Trichophyton rubrum to an equivalent concentration determined by turbidimetry. Cultures were incubated in the wells of microdilution plates at 37° C. for 48 h (C. kefyr) and at 30° C. for 5-7 days (T. rubrum). Growth in wells containing test compounds was estimated turbidimetrically as a percentage of growth in compound-free controls and the lowest concentration of compound that inhibited the growth of an isolate below 35% of control growth was recorded as the lowest active dose (LAD).

Candida kefyr = experiment: Measurement of antifungal activity in vitro (lowest active dose) vs. Candida kefyr; format: cell-based; settings: lowest concentration inhibiting growth below 35% of control growth; CYG broth, 37° C. for 48 h, turbidimetry
Procedure: as §1

melting point: 177.8 °C
Structure (SMILES): CC(C)N1CCN(c2ccc(N3CCN(c4ccc(OC[C@H]5OC[C@](Cn6cncn6)(c6ccc(F)cc6F)O5)cc4)CC3)cc2)C1=O [Compound 51, (2S-cis)-1-[4-[4-[4-[[4-(2,4-difluorophenyl)-4-(1H-1,2,4-triazol-1-ylmethyl)-1,3-dioxolan-2-yl]methoxy]phenyl]-1-piperazinyl]phenyl]-3-(1-methylethyl)-2-imidazolidinone]
LAD (μM) vs. T. rubrum (Trichophyton rubrum): ≦0.1 μM
LAD (μM) vs. C. keyr (Candida kefyr): ≦0.1 μM
